Values quoted from earlier work, collected in patent publication US20110268797A1, “MULTICOATED ALISKIREN FORMULATIONS” (Sanovel IIac Sanayi Ve Ticaret Anonim Sirketi, priority 2010, published 2011).
Like-named read-outs stand apart in the source and are kept apart here.

Measured: solubility

COCCCOc1cc(C[C@@H](C[C@H](N)[C@@H](O)C[C@H](C(=O)NCC(C)(C)C(N)=O)C(C)C)C(C)C)ccc1OC [Aliskiren hemifumarate]
freely soluble: in n-octanol | in phosphate buffer | in water
